Results taken from patent US10988477B2 (Merck Patent GmbH, priority 2018, dated 2021).

Key:
[1] = molecular target: GCN2 kinase (Homo sapiens, UniProt Q9P2K8); assay: GCN2 enzyme inhibition assay (Transcreener ADP2 fluorescence polarization); type: biochemical; conditions: 280 μM ATP
Summary of the method: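 Human GCN2 (4 nM) preincubated 10 min with compound (0–8 μM) and 200 μM (RS)7 peptide in Tris-HCl pH 7.5, NaCl, MgCl2, DTT. Reaction started with 280 μM ATP, run 1 h at 25 °C. ADP detected by Transcreener fluorescence polarization. IC50 and Ki(app) fitted by tight-binding algorithm.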

[2] = molecular target: intracellular GCN2 (phosphorylation of the GCN2 substrate eIF2α) (Homo sapiens, UniProt Q9P2K8); assay: GCN2 cellular inhibition assay (AlphaScreen SureFire P-eIF2α Ser51, borrelidin-treated U2OS cells); type: cell-based; conditions: biomarker assay, phosphorylated eIF2α Ser51 in borrelidin-treated U2OS cells
Summary of the method: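 Borrelidin at 10 μM is added to U2OS cells immediately after compound (4-fold dilution series, 40 μM top final) for 1 h at 37 °C. Phosphorylated eIF2α Ser51 in lysates is quantified by AlphaScreen and expressed as percent inhibition against borrelidin-stimulated controls.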

[3] = compounds of Formula II, 4 nM GCN2 kinase
[4] = Enzyme activity for compounds of Formula IV, Ki(app), 25° C.

Chain of intracellular GCN2 (phosphorylation of the GCN2 substrate eIF2α) (Q9P2K8 whole entry): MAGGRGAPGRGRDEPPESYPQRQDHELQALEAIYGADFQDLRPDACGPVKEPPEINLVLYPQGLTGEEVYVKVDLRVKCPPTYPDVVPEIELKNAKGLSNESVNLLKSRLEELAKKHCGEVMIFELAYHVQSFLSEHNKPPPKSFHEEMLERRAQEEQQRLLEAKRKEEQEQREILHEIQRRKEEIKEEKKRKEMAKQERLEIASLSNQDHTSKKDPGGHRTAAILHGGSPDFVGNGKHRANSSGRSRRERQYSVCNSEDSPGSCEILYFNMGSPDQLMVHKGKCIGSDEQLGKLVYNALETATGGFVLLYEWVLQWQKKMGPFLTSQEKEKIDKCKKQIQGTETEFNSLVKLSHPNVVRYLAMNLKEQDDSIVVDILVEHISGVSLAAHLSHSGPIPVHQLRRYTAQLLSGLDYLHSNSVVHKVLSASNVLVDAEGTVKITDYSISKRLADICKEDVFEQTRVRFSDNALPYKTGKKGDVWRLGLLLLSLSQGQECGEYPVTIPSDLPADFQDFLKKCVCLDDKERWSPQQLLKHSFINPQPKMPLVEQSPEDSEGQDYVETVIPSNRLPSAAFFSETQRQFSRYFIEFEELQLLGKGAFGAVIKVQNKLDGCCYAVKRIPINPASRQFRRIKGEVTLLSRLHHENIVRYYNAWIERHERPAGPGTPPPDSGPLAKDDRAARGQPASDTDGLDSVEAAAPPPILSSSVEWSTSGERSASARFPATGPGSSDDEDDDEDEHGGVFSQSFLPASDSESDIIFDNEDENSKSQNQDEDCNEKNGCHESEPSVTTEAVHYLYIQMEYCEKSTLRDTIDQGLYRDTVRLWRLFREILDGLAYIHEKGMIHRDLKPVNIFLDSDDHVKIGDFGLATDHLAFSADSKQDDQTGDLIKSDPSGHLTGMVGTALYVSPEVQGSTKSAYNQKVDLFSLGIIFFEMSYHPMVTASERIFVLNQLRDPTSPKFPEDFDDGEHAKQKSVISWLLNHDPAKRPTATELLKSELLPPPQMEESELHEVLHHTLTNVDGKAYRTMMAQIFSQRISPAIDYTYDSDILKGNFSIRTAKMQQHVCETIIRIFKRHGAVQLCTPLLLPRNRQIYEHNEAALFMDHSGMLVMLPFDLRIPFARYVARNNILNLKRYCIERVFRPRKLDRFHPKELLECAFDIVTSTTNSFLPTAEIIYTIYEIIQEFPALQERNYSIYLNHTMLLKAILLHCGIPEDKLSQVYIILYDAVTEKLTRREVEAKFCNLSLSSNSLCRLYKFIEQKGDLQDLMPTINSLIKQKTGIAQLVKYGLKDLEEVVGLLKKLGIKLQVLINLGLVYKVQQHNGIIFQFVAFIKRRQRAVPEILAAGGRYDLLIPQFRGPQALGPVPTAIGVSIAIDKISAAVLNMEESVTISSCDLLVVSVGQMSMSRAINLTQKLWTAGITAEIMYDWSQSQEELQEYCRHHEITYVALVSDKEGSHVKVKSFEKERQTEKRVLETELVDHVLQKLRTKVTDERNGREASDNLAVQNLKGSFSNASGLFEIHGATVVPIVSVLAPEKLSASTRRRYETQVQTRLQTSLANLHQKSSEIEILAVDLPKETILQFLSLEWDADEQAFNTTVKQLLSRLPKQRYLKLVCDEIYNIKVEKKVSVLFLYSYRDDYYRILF
Chain of GCN2 kinase (Q9P2K8 whole entry): as above

Row | Compound | Ki [1, 3] [nM] | IC50 ([2]; compounds of Formula II) [nM] | Ki [1, 4] [nM] | IC50 ([2]; compounds of Formula IV) [nM]
1 | CN(C)S(=O)(=O)NCC1CCCN(c2cc(-c3cnc4ccc(C(F)F)nn34)ncn2)C1 (centres unmarked) [II-348, 3-((1-(6-(6-(Difluoromethyl)imidazo[1,2-b]pyridazin-3-yl)pyrimidin-4-yl)piperidin-3-yl)methyl)-1,1-dimethylsulfuric Diamide] | 10 to 1000 | 500 to 5000 | – | –
2 | CC1C(c2cn[nH]c2)NCCN1c1ccnc(-c2cnc3cnc(C(F)F)cn23)n1 (centres unmarked) [IV-454, 6-(Difluoromethyl)-3-(4-(2-methyl-3-(1H-pyrazol-4-yl)piperazin-1-yl)pyrimidin-2-yl)imidazo[1,2-a]pyrazine] | – | – | 10 to 100 | 500 to 5000
3 | CS(=O)(=O)NCC1CCCN(c2cc(-c3cnc4ccc(C(F)F)nn34)cc(C#N)n2)C1 (centres unmarked) [II-130, N-((1-(6-Cyano-4-(6-(difluoromethyl)imidazo[1,2-b]pyridazin-3-yl)pyridin-2-yl)piperidin-3-yl)methyl)methanesulfonamide] | 10 to 1000 | > 5000 | – | –
4 | C[C@H]1COCCN1c1ccnc(-c2cnc3cnc(C(F)F)cn23)n1 [IV-81, (S)-4-(2-(6-(Difluoromethyl)imidazo[1,2-a]pyrazin-3-yl)pyrimidin-4-yl)-3-methylmorpholine] | – | – | 100 to 1000 | > 5000
5 | FC(F)c1cn2c(-c3nccc(N4CCCC(c5cccnc5)C4)n3)cnc2cn1 (centres unmarked) [IV-52, 6-(Difluoromethyl)-3-(4-(3-(pyridin-3-yl)piperidin-1-yl)pyrimidin-2-yl)imidazo[1,2-a]pyrazine] | – | – | 100 to 1000 | > 5000
6 | CC1CN(c2cc(-c3cnc4ccc(C(F)F)nn34)ccn2)CC(CNS(C)(=O)=O)O1 (centres unmarked) [II-118, N-((4-(4-(6-(Difluoromethyl)imidazo[1,2-b]pyridazin-3-yl)pyridin-2-yl)-6-methylmorpholin-2-yl)methyl)methanesulfonamide] | 10 to 1000 | 500 to 5000 | – | –
7 | CC1CN(c2ccnc(-c3cnc4cnc(C#N)cn34)n2)CC(c2cn[nH]c2)O1 (single isomer, unassigned) [IV-191, 3-(4-(2-Methyl-6-(1H-pyrazol-4-yl)morpholino)pyrimidin-2-yl)imidazo[1,2-a]pyrazine-6-carbonitrile] | – | – | 10 to 100 | 500 to 5000
8 | O=C(NCCO)N1CCCC(c2cc(-c3cnc4ccc(C(F)F)nn34)ncn2)C1 (centres unmarked) [II-178, 3-(6-(6-(difluoromethyl)imidazo[1,2-b]pyridazin-3-yl)pyrimidin-4-yl)-N-(2-hydroxyethyl)piperidine-1-carboxamide] | 10 to 1000 | 500 to 5000 | – | –
9 | COCC1CCCN(c2ccnc(-c3cnc4cnc(C(F)(F)F)cn34)n2)C1 (centres unmarked) [IV-495, 3-(4-(3-(Methoxymethyl)piperidin-1-yl)pyrimidin-2-yl)-6-(trifluoromethyl)imidazo[1,2-a]pyrazine] | – | – | 100 to 1000 | > 5000
10 | CS(=O)(=O)N1CCC2CCN(c3ccnc(-c4cnc5cnc(C(F)F)cn45)n3)CC21 (centres unmarked) [IV-144, 6-(Difluoromethyl)-3-(4-(1-(methylsulfonyl)octahydro-6H-pyrrolo[2,3-a]pyridin-6-yl)pyrimidin-2-yl)imidazo[1,2-a]pyrazine] | – | – | 100 to 1000 | 500 to 5000
11 | C[C@@H]1CN(c2ccnc(-c3cnc4cnc(C(F)(F)F)cn34)n2)C[C@H](c2cn[nH]c2)O1 (racemic) [IV-12, Cis-2-Methyl-6-(1H-pyrazol-4-yl)-4-(2-(6-(trifluoromethyl)imidazo[1,2-a]pyrazin-3-yl)pyrimidin-4-yl)morpholine] | – | – | < 10 | < 500
12 | CS(=O)(=O)NCC1CC(N2CC(F)C2)CN(c2cc(-c3cnc4ccc(C(F)F)nn34)ncn2)C1 (centres unmarked) [II-428, N-((1-(6-(6-(Difluoromethyl)imidazo[1,2-b]pyridazin-3-yl)pyrimidin-4-yl)-5-(3-fluoroazetidin-1-yl)piperidin-3-yl)methyl)methanesulfonamide] | 10 to 1000 | > 5000 | – | –
13 | FC(F)c1ccc2ncc(-c3cc(N4CCOC(Cn5cncn5)C4)ncn3)n2n1 (centres unmarked) [II-326, 2-((1H-1,2,4-Triazol-1-yl)methyl)-4-(6-(6-(difluoromethyl)imidazo[1,2-b]pyridazin-3-yl)pyrimidin-4-yl)morpholine] | 10 to 1000 | > 5000 | – | –
